In US20100130500A1, “METHODS AND COMPOSITIONS FOR THE TREATMENT OF PULMONARY HYPERTENSION OF THE NEWBORN” (BIOMARIN PHARMACEUTICAL INC., priority 2004, published 2010):

How the values were obtained:
[1] = Physical stability of crystal forms (temperature, humidity, phase equilibration); assay type: physicochemical
[2] = Hygroscopicity / water adsorption of crystal forms; assay type: physicochemical; settings: dihydrochloride
infants with PPHN = settings: cited from earlier work

Compound: C[C@H](O)[C@H](O)[C@H]1CNc2nc(N)[nH]c(=O)c2N1.Cl.Cl [Polymorph A, (6R)-L-erythro-tetrahydrobiopterin dihydrochloride]
- phase equilibration tests of suspensions ([1]; tetrahydrofuran or tertiary-butyl methyl ether, stirred five days and 18 hours respectively, nitrogen, room temperature, filtration and air-drying): unchanged polymorph form A
- adsorbs water to a content of [2]: about 3 percent by weight

Compound: C[C@H](O)[C@H](O)[C@H]1CNc2nc(N)[nH]c(=O)c2N1.Cl.Cl [Polymorph B, (6R)-L-erythro-tetrahydrobiopterin dihydrochloride]
- stability of the crystal form ([1]; dihydrochloride): highest thermodynamic stability above about 20 °C

Compound: C[C@H](O)[C@H](O)[C@H]1CNc2nc(N)[nH]c(=O)c2N1.Cl.Cl [Polymorph F, (6R)-L-erythro-tetrahydrobiopterin dihydrochloride]
- adsorbs water to a content of [2]: about 3 percent by weight

Compound: C[C@H](O)[C@H](O)[C@H]1CNc2nc(N)[nH]c(=O)c2N1.Cl.Cl [Polymorph K, (6R)-L-erythro-tetrahydrobiopterin dihydrochloride]
- adsorbs water to a content of [2]: about 2.0 percent by weight

Compound: Nc1ncnc2c1ncn2[C@@H]1O[C@H](COP(=O)(O)OP(=O)(O)OP(=O)(O)O)[C@@H](O)[C@H]1O [adenosine triphosphate]
- infants with a response (infants with PPHN): 5 out of 6

Compound: C[C@H](O)[C@H](O)[C@H]1CNc2nc(N)[nH]c(=O)c2N1.Cl.Cl [hydrate form D, (6R)-L-erythro-tetrahydrobiopterin dihydrochloride]
- relative humidity at which the form is stable ([1]; ambient temperatures, dihydrochloride): less than 70%

Compound: C[C@H](O)[C@H](O)[C@H]1CNc2nc(N)[nH]c(=O)c2N1.Cl.Cl [polymorph J, (6R)-L-erythro-tetrahydrobiopterin dihydrochloride]
- relative humidity at which it is transformed back into form E [1]: above 75%

Compound: c1ccc(CC2=NCCN2)cc1 [tolazoline]
- response rate (infants with PPHN): 60%
